Where two headings read alike, the source gives them in different places. *1 amine or outer side, *2 acyl side, *3 side chain or, on linkers, in order; H or OH if unused. Where a SMILES comes first, the peptide text is derived from it. Where no end group is shown, it is not given here. Side-chain parts run from the residue outwards. [ ]: non-standard residue; d: D form. The star is where a group is joined. X1 = 5‑aminoethylsulfonamide isoquinoline, O=S(=O)(NCCN*)c1cccc2cnccc12; Isoquinoline5sulfonyl = O=S(=O)(c1cccc2cnccc12)*; Ethylenediamine = C(CN[*:2])N[*:1]; hLeu = CC(C)CC[C@H](N)C(=O)O; Nle = CCCC[C@H](N)C(=O)O; Orn = NCCC[C@H](N)C(=O)O; Dab = NCC[C@H](N)C(=O)O; Nva = CCC[C@H](N)C(=O)O; Abu = CC[C@H](N)C(=O)O; Dap = NC[C@H](N)C(=O)O; βAla = NCCC(=O)O

For one experiment, the system named is PC-3 cells. The experiment is described as follows: ssDNA apoptosis ELISA (induction of apoptosis in prostate cancer cells). Format: cell-based. The note with it: 50 μM, optical density of treated divided by untreated cells. On the procedure:
Cells were assayed for Apoptosis using the ssDNA Apoptosis ELISA kit (Chemicon International Inc.). Cells were seeded in 96-well plates (5000 cells/well) and treated with different concentrations of the inhibitors. At different time point, plates were centrifuges at 200 g for 5 min, medium was removed and the cells were fixed with 80% methanol in PBS for 30 min at room temperature. Plates were dried by floating in a waterbath at 37° C. for 20 minutes. 50 μl of Formamide was added to each well and incubate at room temperature for 10 min. Plates were heated to 75° C. in a circulating waterbath for 10 min, cooled in refrigerator for 5 min, and then formamide was removed. Plates were blocked by 3% non-fat dry milk in distilled water (w/v) for 1 hr at 37° C. Blocking was removed and 100 μl of antibody mixture (primary monoclonal antibody to ssDNA and HRP-labelled anti-mouse IgM) was added to each well. Plates were monitored for colour development by ABTS using microplate reader at 405 nm.
DNA in apoptotic cells is sensitive to denaturation by formamide in contrast to necrotic cells. This sensitivity is due to changes in apoptotic cells chromatin. The specific denaturation was detected with monoclonal antibody to single stranded DNA. Using ssDNA Apoptosis ELISA kit (Chemicon International, Inc.) chimeric compounds were analyzed for their potential to induce apoptosis in PC-3 cells compared to TRAIL (TNF-related apoptosis-inducing ligand), a known apoptotic agent (R&D Systems, Inc.). Results are presented in values of apoptotic index which is calculated by dividing the optical density of treated and untreated cells.

The next experiment deals with T1, PKA (Bos taurus, UniProt P00517).
T1 construct: purchased Promega
Kind of experiment: In vitro PKA kinase activity assay (kemptide / SPA beads).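 As to all read-outs here: Cell-free assay of purified PKA catalytic subunit phosphorylating the 7-mer kemptide substrate, run in MOPS buffer with magnesium acetate and BSA, with blank wells lacking enzyme.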 Format: biochemical. To be noted: for inhibition at 1 µM / PKA-kinase Assay 1, % inhibition of kinase activity / PKA-kinase Assay 2, % inhibition of kinase activity: 1 μM compound concentration.

The target in a further experiment is T2, PKB (Homo sapiens, UniProt P31749).
T2 construct: His; HA; made in house
The experiment is described as follows: PKB in vitro kinase activity assay (soluble His-HA-PKB / SPA bead screening). To be noted: for inhibition at 1 µM / PKB-kinase (spa) Assay 1, % inhibition of kinase activity / PKB-kinase (spa) Assay 2, % inhibition of kinase activity: 1 μM compound concentration. Format: biochemical.

Setting [1] is: chimeric PTR compounds (peptide conjugated to isoquinoline small molecule), read-out: PKA IC50.
Where [2] appears, read: chimeric PTR compounds (peptide conjugated to isoquinoline small molecule), read-out: PKB IC50.
[3] abbreviates: Assay 1, read-out: PKA-kinase Assay 1, % inhibition of kinase activity.
Where [4] appears, read: Assay 2, read-out: PKA-kinase Assay 2, % inhibition of kinase activity.
Setting [5] is: Table 1, most preferred compounds, read-out: IC50 PKA.
[6] abbreviates: Assay 1, read-out: PKB-kinase (spa) Assay 1, % inhibition of kinase activity.
The mark [7] stands for this setting: Assay 2, read-out: PKB-kinase (spa) Assay 2, % inhibition of kinase activity.
Setting [8] is: Table 1, most preferred compounds, read-out: IC50 PKB.

T2 sequence (P31749 whole entry, species assumed): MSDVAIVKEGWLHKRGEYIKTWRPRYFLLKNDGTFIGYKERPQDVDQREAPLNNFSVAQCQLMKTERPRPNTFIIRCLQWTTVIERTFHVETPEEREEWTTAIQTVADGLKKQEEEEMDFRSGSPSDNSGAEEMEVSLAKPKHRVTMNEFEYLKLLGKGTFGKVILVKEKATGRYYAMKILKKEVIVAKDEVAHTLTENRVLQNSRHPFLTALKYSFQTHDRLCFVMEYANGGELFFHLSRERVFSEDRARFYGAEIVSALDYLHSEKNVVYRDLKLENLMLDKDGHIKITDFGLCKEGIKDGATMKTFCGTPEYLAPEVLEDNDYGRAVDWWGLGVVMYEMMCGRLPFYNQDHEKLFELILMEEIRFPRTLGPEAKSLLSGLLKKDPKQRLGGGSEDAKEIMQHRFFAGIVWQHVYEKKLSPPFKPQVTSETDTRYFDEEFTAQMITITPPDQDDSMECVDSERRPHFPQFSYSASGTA

As for “Arg-Pro-Arg-Nva-Glu-(5-mercaptoaminopropyl-isoquinoline)-Ser-Phe [PTR 6134]”, the “Apoptotic index (48 hours)” value in the experiment on PC-3 cells turned out to be 2.2.
As to `CCCC[C@H](NC(=O)[C@H](CCCNC(=N)N)NC(=O)[C@@H]1CCCN1C(=O)[C@@H](N)CCCNC(=N)N)C(=O)N[C@@H](CCC(=O)NCCC(=O)NCCNS(=O)(=O)c1cccc2cnccc12)C(=O)N[C@@H](CO)C(=O)N[C@@H](Cc1ccccc1)C(N)=O` [compound 6086], the “Apoptotic index (48 hours)” value with PC-3 cells is recorded as 2.5. Also, the IC50 on PKA (setting [1]) was found to be 500 nM; on PKB (setting [2]), 570 nM.
`CCCC[C@H](NC(=O)[C@H](CO)NC(=O)[C@H](CCC(=O)NCCC(=O)NCCNS(=O)(=O)c1cccc2cnccc12)NC(=O)[C@H](CCCC)NC(=O)[C@H](CCCNC(=N)N)NC(=O)[C@@H]1CCCN1C(=O)[C@@H](N)CCCNC(=N)N)C(N)=O` [compound 6096] (H-RPR[Nle]E([βAla-Ethylenediamine-Isoquinoline5sulfonyl])S[Nle]-NH2; N-terminus assumed): the “Apoptotic index (48 hours)” value in the experiment on PC-3 cells turned out to be 3.2. Also, the IC50 at PKA (setting [1]) is 200 nM; on PKB (setting [2]), 930 nM.
Consider “Arg-Pro-Arg-Thr-Glu-(bAla-5-mercaptoaminopropyl-isoquinoline)-Ser-Phe [PTR 6102]”, for which the “Apoptotic index (48 hours)” value in the experiment with PC-3 cells is reported as 2.7.
On to `CCCC[C@H](NC(=O)[C@H](CCCNC(=N)N)NC(=O)[C@@H]1CCCN1C(=O)[C@@H](N)CCCNC(=N)N)C(=O)N[C@@H](CCC(=O)NCCC(=O)NCCNS(=O)(=O)c1cccc2cnccc12)C(=O)N[C@@H](CC)C(=O)N[C@@H](Cc1ccccc1)C(N)=O` [compound 6138] (H-RPR[Nle]E([βAla-Ethylenediamine-Isoquinoline5sulfonyl])[Abu]F-NH2; N-terminus assumed), for which the “Apoptotic index (48 hours)” value in the experiment with PC-3 cells was found to be 3.6. Also, the IC50 at PKB (setting [2]) amounted to 2000 nM.
For the compound `CCC[C@H](NC(=O)[C@H](CCCNC(=N)N)NC(=O)[C@@H]1CCCN1C(=O)[C@@H](N)CCCNC(=N)N)C(=O)N[C@@H](CCC(=O)NCCC(=O)NCCNS(=O)(=O)c1cccc2cnccc12)C(=O)N[C@@H](C)C(=O)N[C@@H](CCC(C)C)C(N)=O` [compound 6152] (H-RPR[Nva]E([βAla-Ethylenediamine-Isoquinoline5sulfonyl])A[hLeu]-NH2; N-terminus assumed), the “Apoptotic index (48 hours)” value in the experiment on PC-3 cells turned out to be 1.5. The IC50 on PKA (setting [1]) and at PKB (setting [2]) was 5000 nM throughout.
Regarding `C[C@@H](O)[C@H](NC(=O)[C@H](CCCNC(=N)N)NC(=O)[C@@H]1CCCN1C(=O)[C@@H](N)CCCNC(=N)N)C(=O)N[C@@H](CCC(=O)NCCC(=O)NCCNS(=O)(=O)c1cccc2cnccc12)C(=O)N[C@@H](CO)C(=O)N[C@@H](Cc1ccccc1)C(N)=O` [compound 6082] (H-RPRTE([βAla-Ethylenediamine-Isoquinoline5sulfonyl])SF-NH2; N-terminus assumed), the “Apoptotic index (48 hours)” value with PC-3 cells was found to be 2.6. The IC50 on PKA (setting [1]) came to 200 nM; at PKB (setting [2]) it was 5540 nM.
As to `C[C@@H](O)[C@H](NC(=O)[C@H](CCCNC(=N)N)NC(=O)[C@@H]1CCCN1C(=O)[C@@H](N)CCCNC(=N)N)C(=O)N[C@@H](CCC(=O)NCCNS(=O)(=O)c1cccc2cnccc12)C(=O)N[C@@H](CO)C(=O)N[C@@H](Cc1ccccc1)C(N)=O` [PTR 6016] (H-RPRTE([Ethylenediamine-Isoquinoline5sulfonyl])SF-NH2; N-terminus assumed), the “Apoptotic index (48 hours)” value in the experiment on PC-3 cells stood at 3.4. Besides, the IC50 turned out to be 500 nM at PKA (Table 2, chimeric compounds, read-out: Activity PKA); 100 nM at PKA (setting [1]); 900 nM at PKB (FIG. 1, synergistic effect of conjugation, read-out: activity (PKB inhibition)); 1000 nM on PKB (setting [2]).
Consider “Arg-Pro-Arg-Nle-Glu-(5-mercaptoaminopropyl-isoquinoline)-Ser-Phe [PTR 6136]”, for which, in the experiment on PC-3 cells, the “Apoptotic index (48 hours)” value is 2.4.
With “Arg-Pro-Arg-Thr-Glu-(5-mercaptoaminopropyl-isoquinoline)-Ser-Phe [PTR 6104]”, the “Apoptotic index (48 hours)” value in the experiment on PC-3 cells turned out to be 2.9.
Regarding `CCCC[C@H](NC(=O)[C@H](CCCNC(=N)N)NC(=O)[C@@H]1CCCN1C(=O)[C@@H](N)CCCNC(=N)N)C(=O)N[C@@H](CCC(=O)NCC(=O)NCCNS(=O)(=O)c1cccc2cnccc12)C(=O)N[C@@H](CCN)C(=O)N[C@@H](CCC(C)C)C(N)=O` [60020-58, Arg-Pro-Arg-Nle-Glu-(Gly-5-aminoethylsulfonamide)-Dab-Hol] (H-RPR[Nle]E([Gly-Ethylenediamine-Isoquinoline5sulfonyl])[Dab][hLeu]-NH2), the inhibition at 1 µM at PKA (setting [3]) was determined as 98%; on PKA (setting [4]) it was 99%; on PKB (setting [6]), 89%; at PKB (setting [7]) it was 93%. The IC50 at PKA (setting [5]) turned out to be 50 nM; on PKB (setting [8]) it was 120 nM.
Consider “60020-49: Arg-Pro-Arg-Abu-Glu(Gly-5-aminoethylsulfonamide isoquinoline)-Dab-Phe (RPR[Abu]E([Gly-X1])[Dab]F)”, for which the “PKA-kinase Assay 1, % inhibition of kinase activity” value with PKA (Assay 1) worked out at 95%. The “PKA-kinase Assay 2, % inhibition of kinase activity” value in the experiment with PKA (Assay 2) was 95%. Also, the “PKB-kinase (spa) Assay 1, % inhibition of kinase activity” value in the experiment with PKB (Assay 1) is 66%. Besides, the “PKB-kinase (spa) Assay 2, % inhibition of kinase activity” value in the experiment with PKB (Assay 2) turned out to be 66%.
Consider `CC(C)CC[C@H](NC(=O)[C@H](CCCN)NC(=O)[C@H](CCC(=O)NCCC(=O)NCCNS(=O)(=O)c1cccc2cnccc12)NC(=O)[C@H](CN)NC(=O)[C@H](CCCNC(=N)N)NC(=O)[C@@H]1CCCN1C(=O)[C@@H](N)CCCNC(=N)N)C(N)=O` [60020-68] (H-RPR[Dap]E([βAla-Ethylenediamine-Isoquinoline5sulfonyl])[Orn][hLeu]-NH2; N-terminus assumed), for which the IC50 on PKA (Table 6, most active compounds from plate TY-60020, read-out: IC50 PKA) amounted to 250 nM; on PKB (Table 6, most active compounds from plate TY-60020, read-out: IC50 PKB) it was 500 nM. Further, the results for the inhibition at 1 µM on PKB (setting [6]) and at PKB (setting [7]) were 61% and 74%, respectively.
Consider `CCCC[C@H](NC(=O)[C@H](CCCNC(=N)N)NC(=O)[C@@H]1CCCN1C(=O)[C@@H](N)CCCNC(=N)N)C(=O)N[C@@H](CCC(=O)NCC(=O)NCCNS(=O)(=O)c1cccc2cnccc12)C(=O)N[C@@H](CCN)C(=O)N[C@@H](Cc1ccccc1)C(N)=O` [60020-57, Arg-Pro-Arg-Nle-Glu-(Gly-5-aminoethylsulfonamide)-Dab-Phe] (H-RPR[Nle]E([Gly-Ethylenediamine-Isoquinoline5sulfonyl])[Dab]F-NH2), for which the inhibition at 1 µM is 95% at PKA (setting [3]), 96% on PKA (setting [4]), 92% on PKB (setting [6]) and 93% at PKB (setting [7]). The IC50 was 210 nM at PKA (setting [5]) and 70 nM at PKB (setting [8]).
Turning to “60020-51: Arg-Pro-Arg-Abu-Glu(Gly-5-aminoethylsulfonamide isoquinoline)-Orn-Phe (RPR[Abu]E([Gly-X1])[Orn]F)”, the “PKA-kinase Assay 1, % inhibition of kinase activity” value with PKA (Assay 1) was found to be 94%. Also, in the experiment with PKA (Assay 2), the “PKA-kinase Assay 2, % inhibition of kinase activity” value is given as 95%. Also, the “PKB-kinase (spa) Assay 1, % inhibition of kinase activity” value with PKB (Assay 1) is 47%. Further, the “PKB-kinase (spa) Assay 2, % inhibition of kinase activity” value with PKB (Assay 2) stood at 37%.
On to `CCCC[C@H](NC(=O)[C@H](CCCNC(=N)N)NC(=O)[C@@H]1CCCN1C(=O)[C@@H](N)CCCNC(=N)N)C(=O)N[C@@H](CCC(=O)NCCC(=O)NCCNS(=O)(=O)c1cccc2cnccc12)C(=O)N[C@@H](CCN)C(=O)N[C@@H](Cc1ccccc1)C(N)=O` [compound 6140] (H-RPR[Nle]E([βAla-Ethylenediamine-Isoquinoline5sulfonyl])[Dab]F-NH2; N-terminus assumed), for which, in the experiment with PC-3 cells, the “Apoptotic index (48 hours)” value amounted to 4.0. The values for the IC50 at PKA (setting [1]) and on PKB (setting [2]) were 195 nM and 413 nM, respectively.

The values above are taken from US7407939B2, “Protein kinase inhibitors comprising ATP mimetics conjugated to peptides or peptidomimetics” (CureGenics Ltd., priority 2001, dated 2008).
